Measured values as given in patent US7648824B2, “Method of sequencing DNA” (Qiagen GmbH, priority 2000, dated 2010).
“Also recorded” adds a separate entry of the source.

How the values were obtained:
luciferase [1] = target: T1, luciferase (Photinus pyralis, UniProt P08659); assay: Model system simulating PPi-based sequencing: nucleotide plus ATP added to luciferase/apyrase/substrate mixture, light signal height; format: biochemical; settings: for luciferase activity (signal intensity, height of ascending curve): 50 additions of nucleotide + 2 μM ATP in 50 minutes, 100 ng luciferase, 50 mU apyrase, room temperature
T1 construct: purchased BioThema, Dalaro, Sweden
T1 sequence (P08659 whole entry): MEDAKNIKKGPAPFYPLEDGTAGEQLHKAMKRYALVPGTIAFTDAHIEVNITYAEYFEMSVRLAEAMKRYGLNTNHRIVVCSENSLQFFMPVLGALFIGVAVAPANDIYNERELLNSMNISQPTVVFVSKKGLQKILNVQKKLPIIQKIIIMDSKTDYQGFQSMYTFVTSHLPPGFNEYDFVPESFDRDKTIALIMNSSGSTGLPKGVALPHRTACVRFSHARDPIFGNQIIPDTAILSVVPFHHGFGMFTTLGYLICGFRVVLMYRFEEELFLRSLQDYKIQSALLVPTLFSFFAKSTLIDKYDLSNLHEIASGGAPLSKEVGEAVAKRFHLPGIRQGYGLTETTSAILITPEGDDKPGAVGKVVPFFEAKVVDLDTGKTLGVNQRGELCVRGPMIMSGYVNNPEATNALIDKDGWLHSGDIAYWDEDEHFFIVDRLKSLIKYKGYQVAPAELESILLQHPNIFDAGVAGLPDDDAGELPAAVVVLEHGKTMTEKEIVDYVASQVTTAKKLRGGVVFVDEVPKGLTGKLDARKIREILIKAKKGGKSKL
Description: (§1) In this Example a series of 5 experiments were carried out to examine the inhibitory effect of each of the 5 nucleotides (dATP, dATPαS, dCTP, dGTP and dTTP) on the enzymes apyrase and luciferase. A model system was used which simulated the effects of these enzymes in a PPi-based sequencing reaction. Each nucleotide was added to the luciferase/apyrase/substrate mixture, along with ATP (to provide a substrate for luciferase), and the effect of each nucleotide addition on the enzymes was monitored by observing the light signals generated from the luciferase reaction.
(§2) The reactions were performed at room temperature in a volume of 50 μl on an automated prototype Pyrosequencer instrument (kindly supplied by Pyrosequencing AB, Uppsala, Sweden). The reaction mixture contained: 50 mU apyrase (Sigma Chemical Co., USA), 100 ng purified luciferase (BioThema, Dalaro, Sweden), 0.1 M Tris-acetate (pH 7.75), 0.5 mM EDTA, 5 mM magnesium acetate, 0.1% bovine serum albumin, 1 mM dithiothreitol, 0.4 mg/ml polyvinylpyrrolidone (360 000), and 100 μg/ml D-luciferin (BioThema). An ATP concentration of 2 μM was added to different nucleotides (dATP, dATPαS, dCTP, dGTP and dTTP), as shown in FIGS. 1 to 5 to follow the activity of luciferase and apyrase. For investigation of the effect of Shrimp Alkaline Phosphatase (Amersham Pharmacia Biotech, Uppsala, Sweden), two units of this enzyme were added to the reaction mixture—see further below. In total, 50 additions of nucleotide and ATP mixture were performed in 50 minutes. The output of light resulting from nucleotide incorporation was detected by a CCD-camera. The data was obtained in Excel format.

[2] = test system: Enzyme mix (DNA polymerase, ATP-sulphurylase, apyrase and luciferase); assay: Preincubation of Pyrosequencing reaction mixture with nucleotide, then PPi-based sequencing with ELIDA detection; format: biochemical; settings: for effect of preincubation on the sequencing reaction: similar experiment, nucleotides from prototype PSQ 96 SNP Reagent kit, 2 pmol template, control 1×TE, results not shown; for inhibition of the sequencing reaction: preincubation with 5, 10 or 20 μl nucleotide for 10 minutes at room temperature without template, compared with 0 μl
Description: (§3) In this example, the inhibitory effect of dATPαS on a PPi-based sequencing reaction with ELIDA detection (known as Pyrosequencing) was investigated by preincubating the reaction mixture in the absence of template with varying amounts of the normal (i.e. racemic) dATPαS (containing both Rp and Sp isomers), or the pure Sp isomer of dATPαS. After preincubation, template was added and a normal “Pyrosequencing™”, reaction was carried out.
(§4) The “normal” dATPαS was taken from the PSQ 96 SNP Reagent kit supplied by Pyrosequencing AB (Uppsala, SE). The pure Rp and Sp isomers were purchased from Biolog Life Science (Bremen, Germany). The reaction mixture also included Enzyme mix (DNA polymerase, ATP-sulphurylase, apyrase and luciferase) and Substrate mix (luciferin and APS), from the PSQ 96 SNP Reagent kit supplied by Pyrosequencing AB. The template was an oligonucleotide (interactiva, Ulm, Germany) from which the following sequence could be read after annealing of a sequencing primer: […].
The pure isomer samples were diluted to the same concentration as the dATPαS in the PSQ 96 SNP Reagent kit. For preincubation, 0, 5, 10 or 20 μl of each A-sample (normal dATPαS or the Rp or Sp isomer) was added to a mixture containing 5 μl Enzyme mix, 5 μl Substrate mix in a total volume of 45 μl. The reaction was carried out in the 96 well plate delivered with the PSQ 96 SNP Reagent kit. The reaction was incubated at room temperature, in the dark for 10 minutes. After this, […] in 5 μl annealed oligonucleotide template was added to each well and the plate was transferred […] the PSQ 96 instrument, where a normal “Pyrosequencing™” reaction was carried out (omitting addition of Enzyme and Substrate mixes).
A similar experiment was also performed where the preincubation was carried out comparing “normal” dATPαS with dCTP, dGTP or dTTP, all from a prototype to the PSQ 96 SNP Reagent kit. As control, only 1×TE (dilution buffer for the dNTPs) was added. The template was the same as above, but 2 pmol were added to each well.

apyrase [3] = target: T2, apyrase (Solanum tuberosum, UniProt P80595); assay: Model system simulating PPi-based sequencing: nucleotide plus ATP added to luciferase/apyrase/substrate mixture, slope of descending curve / signal width; format: biochemical; settings: for apyrase activity (slope of descending curve, signal width): 50 additions of nucleotide + 2 μM ATP in 50 minutes, 100 ng luciferase, 50 mU apyrase, room temperature
T2 construct: purchased Sigma Chemical Co., USA
T2 sequence (P80595 1-454): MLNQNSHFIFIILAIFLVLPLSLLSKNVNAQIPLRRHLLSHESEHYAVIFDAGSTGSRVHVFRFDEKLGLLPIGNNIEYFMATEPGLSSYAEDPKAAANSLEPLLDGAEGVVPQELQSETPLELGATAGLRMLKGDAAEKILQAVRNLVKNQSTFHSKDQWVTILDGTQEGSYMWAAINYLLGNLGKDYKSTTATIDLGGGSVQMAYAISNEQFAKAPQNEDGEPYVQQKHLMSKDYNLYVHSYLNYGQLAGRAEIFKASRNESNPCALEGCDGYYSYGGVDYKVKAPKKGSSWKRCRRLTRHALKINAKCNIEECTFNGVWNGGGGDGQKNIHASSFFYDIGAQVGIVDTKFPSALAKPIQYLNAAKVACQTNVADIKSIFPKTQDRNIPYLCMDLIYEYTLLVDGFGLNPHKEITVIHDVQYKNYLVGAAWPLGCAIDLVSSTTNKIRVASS
Description: as §1, §2

apyrase [4] = target: T2, apyrase; assay: Preincubation of Pyrosequencing reaction mixture with nucleotide, signal width; format: biochemical; settings: preincubation with 5, 10 or 20 μl nucleotide for 10 minutes, compared with 0 μl
Description: as §3, §4
(§5) The pure isomer samples were diluted to the same concentration as the dATPαS in the PSQ 96 SNP Reagent kit. For preincubation, 0, 5, 10 or 20 μl of each A-sample (normal dATPαS or the Rp or Sp isomer) was added to a mixture containing 5 μl Enzyme mix, 5 μl Substrate mix in a total volume of 45 μl. The reaction was carried out in the 96 well plate delivered with the PSQ 96 SNP Reagent kit. […]

luciferase [5] = target: T1, luciferase; assay: Preincubation of Pyrosequencing reaction mixture with nucleotide, signal intensity; format: biochemical; settings: preincubation with 5, 10 or 20 μl nucleotide for 10 minutes, compared with 0 μl
Description: as §3, §4, §5

luciferase [6] = target: T1, luciferase; settings: literature report, Ford et al., 1998; cited from earlier work
[7] = 0.7 mM dATPαS + 2 μM ATP, 50 cycles, 2 U alkaline phosphatase added

Row | SMILES | luciferase activity (signal intensity, height of ascending curve) (luciferase [1]) | effect of preincubation on the sequencing reaction [2] | apyrase activity (slope of descending curve, signal width) (apyrase [3]) | inhibition of the sequencing reaction [2] | further results
1 | Cc1cn([C@H]2C[C@H](O)[C@@H](COP(=O)(O)OP(=O)(O)OP(=O)(O)O)O2)c(=O)[nH]c1=O [dTTP, deoxythymidine triphosphate] | do not inhibit luciferase or apyrase | no negative effect | do not inhibit luciferase or apyrase | – | –
2 | Nc1ccn([C@H]2C[C@H](O)[C@@H](COP(=O)(O)OP(=O)(O)OP(=O)(O)O)O2)c(=O)n1 [dCTP, deoxycytidine triphosphate] | do not inhibit luciferase or apyrase | no negative effect | do not inhibit luciferase or apyrase | – | –
3 | Nc1ncnc2c1ncn2[C@H]1C[C@H](O)[C@@H](COP(O)(=S)OP(=O)(O)OP(=O)(O)O)O1 (stereo partly drawn) [dATPαS, deoxyadenosine α-thiotriphosphate] | relatively linear decrease in signal intensity | severe negative effect | drastically inhibited in later cycles | progressively severe inhibition | luciferase activity (signal intensity) in the presence of alkaline phosphatase (luciferase [1]; [7]): no inhibition of luciferase; decrease in signal intensity after 50 cycles, less than that obtained with dATP (luciferase [1]; 0.7 mM nucleotide + 2 μM ATP, after 50 cycles, compared with dATP (FIG. 1)): 50%; apyrase activity (signal width) in the presence of alkaline phosphatase (apyrase [3]; [7]): lack of apyrase inhibition; apyrase inhibition (signal width, signal definition) (apyrase [4]): apyrase inhibition is particularly occurring; luciferase inhibition (signal intensity, peak height) (luciferase [5]): Some loss of signal intensity
4 | Nc1ncnc2c1ncn2[C@H]1C[C@H](O)[C@@H](COP(=O)(O)O)O1 [dAMP] | – | – | – | – | inhibition of luciferase (luciferase [6]): inhibits luciferase
5 | Nc1ncnc2c1ncn2[C@H]1C[C@H](O)[C@@H](COP(=O)(O)OP(=O)(O)OP(=O)(O)O)O1 [dATP, deoxyadenosine triphosphate] | relatively linear decrease in signal intensity | – | – | – | –
6 | Nc1ncnc2c1ncn2[C@H]1C[C@H](O)[C@@H](COP(O)(=S)OP(=O)(O)OP(=O)(O)O)O1 (single isomer, unassigned) [Sp isomer] | – | – | – | significantly reduced | –
7 | Nc1ncnc2c1ncn2[C@H]1C[C@H](O)[C@@H](COP(O)(=S)OP(=O)(O)OP(=O)(O)O)O1 (single isomer, unassigned) [Rp isomer] | – | – | – | Even more pronounced inhibition; also recorded: severe effect on all enzymes involved in the ELIDA detection | apyrase inhibition (signal width, signal definition) (apyrase [4]): increased signal width; luciferase inhibition (signal intensity, peak height) (luciferase [5]): signal intensity is decreased
8 | Nc1nc2c(ncn2[C@H]2C[C@H](O)[C@@H](COP(=O)(O)OP(=O)(O)OP(=O)(O)O)O2)c(=O)[nH]1 [dGTP, deoxyguanosine triphosphate] | do not inhibit luciferase or apyrase | no negative effect | do not inhibit luciferase or apyrase | – | –
